According to patent US10703748B2, “Diazanaphthalen-3-yl carboxamides and preparation and use thereof” (Samumed, LLC, priority 2017, dated 2020):

Assays:
[1] = tested on: α-smooth muscle actin (aSMA) positive LL29 cells; experiment: Inhibition of the fibrotic process: αSMA staining in TGF-β1 treated LL29 fibroblasts from IPF patients; settings: Homo sapiens, Fibroblast; for EC50: 96 h; for inhibition at 10 µM: read-out: percentage in parentheses after EC50 >10
[2] = tested on: SW480 colon carcinoma cells; experiment: Cell viability assay (CellTiter-Glo); settings: Homo sapiens; for EC50: SW480, 96 h; for inhibition at 10 µM: SW480, read-out: percent inhibition at 10 μM
[3] = tested on: IL-6; experiment: IL-6 inhibition in LPS-stimulated human peripheral blood mononuclear cells (HTRF); settings: Homo sapiens, PBMC; for EC50: 22 h; for inhibition at 10 µM: read-out: percentage in parentheses after EC50 >10
[4] = molecular target: DYRK1A kinase (Homo sapiens, UniProt Q13627); experiment: DYRK1A kinase activity (Ser/Thr 18 peptide Z-lyte FRET assay); format: biochemical; settings: recombinant DYRK1A, 30 μM ATP, one hour at room temperature;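 note: kinase activity read as coumarin/fluorescein emission ratio after development step, with unphosphorylated and phosphorylated peptide forms setting 0% and 100% controls, values from dose-response curves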
[5] = molecular target: GSK3β kinase (Homo sapiens, UniProt P49841); experiment: GSK3β kinase activity (Ser/Thr 09 peptide Z-lyte FRET assay); format: biochemical; settings: recombinant kinase, 46 μM ATP, one hour at room temperature; read-out: EC50
Sequence of GSK3β kinase (P49841 whole entry): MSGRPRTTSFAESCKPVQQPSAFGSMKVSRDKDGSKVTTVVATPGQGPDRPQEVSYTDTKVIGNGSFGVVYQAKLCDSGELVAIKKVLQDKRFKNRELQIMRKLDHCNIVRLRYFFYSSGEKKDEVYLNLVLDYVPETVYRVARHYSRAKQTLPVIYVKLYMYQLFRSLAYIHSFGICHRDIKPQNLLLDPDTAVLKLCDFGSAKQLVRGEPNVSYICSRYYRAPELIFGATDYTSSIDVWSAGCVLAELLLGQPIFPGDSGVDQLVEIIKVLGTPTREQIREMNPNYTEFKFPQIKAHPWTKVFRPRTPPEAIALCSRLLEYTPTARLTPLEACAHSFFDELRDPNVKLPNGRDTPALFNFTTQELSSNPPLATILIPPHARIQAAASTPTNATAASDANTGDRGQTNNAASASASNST

[6] = tested on: Wnt-responsive Sp5-Luc reporter in SW480 colon carcinoma cells; experiment: Screening assay for Wnt activity (Sp5-Luc reporter gene assay); settings: Homo sapiens; for EC50: SW480; for inhibition at 10 µM: SW480, read-out: percent inhibition at 10 μM

| EC50 [2] | EC50 [3] | EC50 [4] | EC50 [5] | EC50 [6] | Compound | EC50 [1] | inhibition at 10 µM [3] | inhibition at 10 µM [1] | inhibition at 10 µM [2] | inhibition at 10 µM [6] |
| --- | --- | --- | --- | --- | --- | --- | --- | --- | --- | --- |
| 5.37 µM | > 10 µM | 0.035 µM | 9.43 µM | 3.15 µM | CN1CCC(Oc2ccc(C(=O)Nc3ncc4ccc(-c5cnn(C)c5)cc4n3)cc2)CC1 [Compound 1052, N-(7-(1-Methyl-1H-pyrazol-4-yl)quinazolin-2-yl)-4-((1-methylpiperidin-4-yl)oxy)benzamide] | 8.74 µM | 3.8% | – | – | – |
| > 10 µM | > 10 µM | 0.186 µM | 1.69 µM | > 10 µM | CCN(CC)CC(=O)Nc1ncc2ccc(-c3cnn(C)c3CN3CCCCC3)cc2n1 [Compound 1189, 2-(Diethylamino)-N-(7-(1-methyl-5-(piperidin-1-ylmethyl)-1H-pyrazol-4-yl)quinazolin-2-yl)acetamide] | > 10 µM | 7.9% | 18% | 17.4% | 29.5% |
| > 10 µM | > 10 µM | 0.171 µM | 0.112 µM | > 10 µM | Cn1cc(-c2ccc3cnc(NC(=O)C(C)(C)F)nc3c2)nn1 [Compound 1239, 2-Fluoro-2-methyl-N-(7-(1-methyl-1H-1,2,3-triazol-4-yl)quinazolin-2-yl) propanamide] | > 10 µM | 7.3% | 13.5% | 17.2% | 47.4% |
| > 10 µM | > 10 µM | 0.104 µM | 0.069 µM | > 10 µM | Cn1cc(-c2ccc3cnc(NC(=O)C4CCN(CC5(C)COC5)CC4)nc3c2)nn1 [Compound 1254, N-(7-(1-Methyl-1H-1,2,3-triazol-4-yl)quinazolin-2-yl)-1-((3-methyloxetan-3-yl)methyl)piperidine-4-carboxamide] | 6.97 µM | 3.8% | – | 11.2% | 31.7% |
| > 10 µM | 8.81 µM | 0.391 µM | 0.377 µM | > 10 µM | Cn1cncc1-c1ccc2cnc(NC(=O)C3CCC(F)(F)CC3)nc2c1 [Compound 1306, 4,4-Difluoro-N-(7-(1-methyl-1H-imidazol-5-yl)quinazolin-2-yl)cyclohexane-1-carboxamide] | 1.8 µM | – | – | 43.7% | 42.4% |
| > 10 µM | > 10 µM | 0.1 µM | 5.18 µM | > 10 µM | O=C(Nc1ncc2ccc(-c3cnco3)cc2n1)C1CCN(C(=O)CN2CCCC2)CC1 [Compound 1438, N-(7-(Oxazol-5-yl)quinazolin-2-yl)-1-(2-(pyrrolidin-1-yl)acetyl)piperidine-4-carboxamide] | > 10 µM | 9.6% | 29.6% | 14.7% | 10% |
| > 10 µM | > 10 µM | 0.37 µM | 0.707 µM | > 10 µM | Cc1ncc(-c2ccc3cnc(NC(=O)[C@H]4C[C@H](N5CCOCC5)C4)nc3c2)o1 [Compound 1462, trans-N-(7-(2-Methyloxazol-5-yl)quinazolin-2-yl)-3-morpholinocyclobutane-1-carboxamide] | > 10 µM | 0% | 14.5% | 20.9% | 13.6% |
| > 10 µM | > 10 µM | 0.046 µM | 0.578 µM | > 10 µM | Cc1ncc(-c2ccc3cnc(NC(=O)C4CCN(CC(C)(F)F)CC4)nc3c2)o1 [Compound 1471, 1-(2,2-Difluoropropyl)-N-(7-(2-methyloxazol-5-yl)quinazolin-2-yl)piperidine-4-carboxamide] | > 10 µM | 1.8% | 43.6% | 11.3% | 17.8% |
